Blank lines part the entries; values can stand above or below the compound they belong to.
Legend:
[1] = tested on: S6 Ribosomal Protein phosphorylation Ser235/236 in TSC1 null mouse embryo fibroblast (MEF) cells; experiment: Reverse protein array assay, S6 Ribosomal Protein phosphorylation Ser235/236 in TSC1 null MEF cells; format: cell-based; details: 1 h, pS6 ribosomal protein Ser235/236, 60 minutes incubation, read-out: p-S6 IC50
Method in brief: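 TSC1−/− MEFs, seeded and held ≥20 h at 37 °C/5% CO2, were exposed to 8-step serial compound dilutions (0.02% DMSO final; DMSO vehicle control) for 60 min at 37 °C. Cells were then lysed on ice for 10 min and lysates spotted onto reverse protein array chips.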

[2] = molecular target: T1, mTOR (Homo sapiens, UniProt P42345); experiment: Biochemical assay for m-TOR by TR-FRET; details: 8 μM ATP, 400 nM GFP-4EBP1, 0.5 nM mTOR
T1 construct: purchased Invitrogen Corporation (Carlsbad/CA, USA) PV4753
T1 sequence (P42345 1360-2549 limits assumed): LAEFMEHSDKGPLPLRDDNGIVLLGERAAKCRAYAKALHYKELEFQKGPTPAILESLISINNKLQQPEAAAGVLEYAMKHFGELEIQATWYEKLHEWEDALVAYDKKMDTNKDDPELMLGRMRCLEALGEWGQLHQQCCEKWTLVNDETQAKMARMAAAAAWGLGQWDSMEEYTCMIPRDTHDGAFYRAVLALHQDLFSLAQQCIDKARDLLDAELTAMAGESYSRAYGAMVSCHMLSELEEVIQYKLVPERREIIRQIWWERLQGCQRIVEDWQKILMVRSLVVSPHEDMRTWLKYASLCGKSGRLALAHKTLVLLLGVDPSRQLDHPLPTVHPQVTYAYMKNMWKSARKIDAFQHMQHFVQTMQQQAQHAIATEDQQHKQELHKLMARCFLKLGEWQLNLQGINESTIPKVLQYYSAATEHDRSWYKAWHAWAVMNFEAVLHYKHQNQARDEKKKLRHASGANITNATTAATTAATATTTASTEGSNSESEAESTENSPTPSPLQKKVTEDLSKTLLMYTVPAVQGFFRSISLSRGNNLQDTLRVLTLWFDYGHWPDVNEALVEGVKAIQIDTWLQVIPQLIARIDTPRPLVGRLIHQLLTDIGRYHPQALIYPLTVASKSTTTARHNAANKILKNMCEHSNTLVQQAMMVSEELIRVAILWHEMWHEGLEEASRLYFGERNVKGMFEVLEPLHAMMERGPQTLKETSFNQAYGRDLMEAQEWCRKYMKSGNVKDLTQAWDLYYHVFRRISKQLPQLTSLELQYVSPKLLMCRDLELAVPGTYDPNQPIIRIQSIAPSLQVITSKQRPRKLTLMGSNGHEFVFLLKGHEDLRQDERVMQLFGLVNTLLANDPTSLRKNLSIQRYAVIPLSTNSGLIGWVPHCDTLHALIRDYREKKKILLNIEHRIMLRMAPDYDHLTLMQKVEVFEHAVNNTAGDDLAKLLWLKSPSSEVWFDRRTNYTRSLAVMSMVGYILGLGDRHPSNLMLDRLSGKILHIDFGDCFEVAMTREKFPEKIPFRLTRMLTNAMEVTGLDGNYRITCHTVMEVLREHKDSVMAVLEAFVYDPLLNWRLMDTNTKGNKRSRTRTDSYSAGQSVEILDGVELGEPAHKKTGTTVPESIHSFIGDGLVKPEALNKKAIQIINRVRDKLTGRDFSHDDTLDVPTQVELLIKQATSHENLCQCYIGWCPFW
Method in brief: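 TR-FRET read-out: Tb-labelled anti-p4EBP1 pThr46 antibody (0.5 nM), added in EDTA to stop the reaction, detects phosphorylated GFP-4EBP1 after 15 min. Kinase step used 0.5 nM mTOR, 400 nM substrate, 8 μM ATP, MnCl2-containing HEPES buffer pH 7.5, room temperature.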

[3] = tested on: PKB Ser473 phosphorylation in Rat1-myr-HA-p110 alpha cells; experiment: Reverse protein array assay, PKB Ser473 phosphorylation in Rat1-myr-p110 alpha cells; format: cell-based; details: 0.5 h, pAkt Ser473, 30 minutes compound incubation, read-out: p-PKB IC50
Method in brief: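 After at least 20 h of culture, the p110 isoform-transfected Rat1 lines receive compound in an 8-step dilution series, keeping DMSO at 0.2%, for 30 minutes. Cells are then lysed and lysates arrayed on chips for fluorescence detection of Ser473-phosphorylated PKB.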

SMILES: CCCOc1ccc(-c2ccc3ncc4c(c3c2)n(-c2cn(C)nc2C)c(=O)n4C)cn1 [Example 55, 1-(1,3-Dimethyl-1H-pyrazol-4-yl)-3-methyl-8-(6-propoxy-pyridin-3-yl)-1,3-dihydro-imidazo[4,5-c]quinolin-2-one]
IC50 [1]: 18 nM
IC50 [2]: 25 nM
IC50 [3]: 20 nM

SMILES: CCOc1cccc(-c2ccc3ncc4c(c3c2)n(-c2cn(C)nc2C)c(=O)n4C)c1 [Example 57, 1-(1,3-Dimethyl-1H-pyrazol-4-yl)-8-(3-ethoxy-phenyl)-3-methyl-1,3-dihydro-imidazo[4,5-c]quinolin-2-one]
IC50 [1]: 5 nM
IC50 [2]: 322 nM
IC50 [3]: 51 nM

SMILES: COc1ncc(-c2ccc3ncc4c(c3c2)n(-c2cn(C)nc2C)c(=O)n4C)cc1N(C)C(C)=O [Example 62, N-{5-[1-(1,3-Dimethyl-1H-pyrazol-4-yl)-3-methyl-2-oxo-2,3-dihydro-1H-imidazo[4,5-c]quinolin-8-yl]-2-methoxy-pyridin-3-yl}-N-methyl-acetamide]
IC50 [1]: 98 nM
IC50 [2]: 642 nM
IC50 [3]: 469 nM

SMILES: CNc1ncc(-c2ccc3ncc4c(c3c2)n(-c2c(C)nn(C)c2C)c(=O)n4C)cn1 [Example 80.2]
IC50 [1]: 28 nM
IC50 [2]: 120 nM
IC50 [3]: 108 nM

SMILES: Cc1nn(C)cc1-n1c(=O)n(C)c2cnc3ccc(-c4cnc(N)nc4)cc3c21 [Example 81.1, 8-(2-Amino-pyrimidin-5-yl)-1-(1,3-dimethyl-1H-pyrazol-4-yl)-3-methyl-1,3-dihydro-imidazo[4,5-c]quinolin-2-one]
IC50 [1]: 1.69 nM
IC50 [2]: 4 nM
IC50 [3]: 13 nM

SMILES: Cc1nn(C)cc1-n1c(=O)n(C)c2cnc3ccc(-c4cccc(OC(C)C)c4F)cc3c21 [Example 83, 1-(1,3-Dimethyl-1H-pyrazol-4-yl)-8-(2-fluoro-3-isopropoxy-phenyl)-3-methyl-1,3-dihydro-imidazo[4,5-c]quinolin-2-one]
IC50 [1]: 38 nM
IC50 [2]: 61 nM
IC50 [3]: 197 nM

SMILES: COCCOc1cc(-c2ccc3ncc4c(c3c2)n(-c2cn(C)nc2C)c(=O)n4C)cnc1C [Example 86.2, 1-(1,3-Dimethyl-1H-pyrazol-4-yl)-8-[5-(2-methoxy-ethoxy)-6-methyl-pyridin-3-yl]-3-methyl-1,3-dihydro-imidazo[4,5-c]quinolin-2-one]
IC50 [1]: 5 nM
IC50 [2]: 31 nM
IC50 [3]: 33 nM

SMILES: CCNc1cc(-c2ccc3ncc4c(c3c2)n(-c2c(C)nn(CCOC)c2C)c(=O)n4C)cnc1C [Example 87.4, 8-(5-Ethylamino-6-methyl-pyridin-3-yl)-1-[1-(2-methoxy-ethyl)-3,5-dimethyl-1H-pyrazol-4-yl]-3-methyl-1,3-dihydro-imidazo[4,5-c]quinolin-2-one]
IC50 [1]: 41 nM
IC50 [2]: 77 nM
IC50 [3]: 33 nM

SMILES: Cc1ncc(-c2ccc3ncc4c(c3c2)n(-c2cn(C)nc2C)c(=O)n4C)cc1N [Example 88.2, 8-(5-Amino-6-methyl-pyridin-3-yl)-1-(1,3-dimethyl-1H-pyrazol-4-yl)-3-methyl-1,3-dihydro-imidazo[4,5-c]quinolin-2-one]
IC50 [1]: 7 nM
IC50 [2]: 13 nM
IC50 [3]: 24 nM

SMILES: CCNc1cc(-c2ccc3ncc4c(c3c2)n(-c2cn(C)nc2Cl)c(=O)n4C)cnc1OC [Example 90.1, 1-(3-Chloro-1-methyl-1H-pyrazol-4-yl)-8-(5-ethylamino-6-methoxy-pyridin-3-yl)-3-methyl-1,3-dihydro-imidazo[4,5-c]quinolin-2-one]
IC50 [1]: < 0.5 nM
IC50 [2]: 5 nM
IC50 [3]: < 5 nM

SMILES: Cc1nn(C)cc1-n1c(=O)n(C)c2cnc3ccc(-c4ccc(N5CCN(C)CC5)nc4)cc3c21 [Example 96, 1-(1,3-Dimethyl-1H-pyrazol-4-yl)-3-methyl-8-[6-(4-methyl-piperazin-1-yl)-pyridin-3-yl]-1,3-dihydro-imidazo[4,5-c]quinolin-2-one]
IC50 [1]: 7 nM
IC50 [2]: 87 nM
IC50 [3]: 12 nM

SMILES: COc1ccc(-c2ccc3ncc4c(c3c2)n(-c2cn(CC(=O)N(C)C)nc2C)c(=O)n4C)cn1 [Example 102, 2-{4-[8-(6-Methoxy-pyridin-3-yl)-3-methyl-2-oxo-2,3-dihydro-imidazo[4,5-c]quinolin-1-yl]-3-methyl-pyrazol-1-yl}-N,N-dimethyl-acetamide]
IC50 [1]: < 5 nM
IC50 [2]: 11 nM
IC50 [3]: 33 nM

Further lines, with some results ahead:

IC50 [2]: 53 nM
IC50 [3]: 71 nM
SMILES: CCn1cc(-n2c(=O)n(C)c3cnc4ccc(-c5ccc(COC)nc5)cc4c32)c(C)n1 [Example 104, 1-(1-Ethyl-3-methyl-1H-pyrazol-4-yl)-8-(6-methoxymethyl-pyridin-3-yl)-3-methyl-1,3-dihydro-imidazo[4,5-c]quinolin-2-one]
IC50 [1]: 39 nM

IC50 [2]: 20 nM
IC50 [3]: 24 nM
SMILES: Cc1nn(C(C)C)cc1-n1c(=O)n(C)c2cnc3ccc(-c4ccc(C(N)=O)nc4)cc3c21 [Example 112, 5-[1-(1-Isopropyl-3-methyl-1H-pyrazol-4-yl)-3-methyl-2-oxo-2,3-dihydro-1H-imidazo[4,5-c]quinolin-8-yl]-pyridine-2-carboxylic acid amide]
IC50 [1]: 60 nM

IC50 [2]: 470 nM
IC50 [3]: 282 nM
SMILES: Cc1nn(C)cc1-n1c(=O)n(C)c2cnc3ccc(-c4cccc(N(C)S(C)(=O)=O)c4)cc3c21 [Example 117, N-{3-[1-(1,3-Dimethyl-1H-pyrazol-4-yl)-3-methyl-2-oxo-2,3-dihydro-1H-imidazo[4,5-c]quinolin-8-yl]-phenyl}-N-methyl-methanesulfonamide]
IC50 [1]: 154 nM

IC50 [2]: 5 nM
IC50 [3]: 8 nM
SMILES: CNc1ccc(-c2ccc3ncc4c(c3c2)n(-c2cn(C(C)C)nc2C)c(=O)n4C)cn1 [Example 118.1, 1-(1-isopropyl-3-methyl-1H-pyrazol-4-yl)-3-methyl-8-(6-methylamino-pyridin-3-yl)-1,3-dihydro-imidazo[4,5-c]quinolin-2-one]
IC50 [1]: 5 nM

IC50 [2]: 9 nM
IC50 [3]: 107 nM
SMILES: CNc1ccc(-c2ccc3ncc4c(c3c2)n(-c2cn(CC(=O)N(C)C)nc2C)c(=O)n4C)cn1 [Example 118.3, N,N-Dimethyl-2-{3-methyl-4-[3-methyl-8-(6-methylamino-pyridin-3-yl)-2-oxo-2,3-dihydro-imidazo[4,5-c]quinolin-1-yl]-pyrazol-1-yl}-acetamide]
IC50 [1]: 15 nM

IC50 [2]: < 3 nM
IC50 [3]: < 5 nM
SMILES: CNc1ccc(-c2ccc3ncc4c(c3c2)n(-c2cn(C)nc2Cl)c(=O)n4C)cn1 [Example 118.5, 1-(3-Chloro-1-methyl-1H-pyrazol-4-yl)-3-methyl-8-(6-methylamino-pyridin-3-yl)-1,3-dihydro-imidazo[4,5-c]quinolin-2-one]
IC50 [1]: < 0.5 nM

IC50 [2]: 5 nM
IC50 [3]: < 5 nM
SMILES: CCNc1cncc(-c2ccc3ncc4c(c3c2)n(-c2cn(C)nc2C)c(=O)n4C)c1 [Example 122, 1-(1,3-Dimethyl-1H-pyrazol-4-yl)-8-(5-ethylamino-pyridin-3-yl)-3-methyl-1,3-dihydro-imidazo[4,5-c]quinolin-2-one]
IC50 [1]: < 0.5 nM

IC50 [2]: 143 nM
IC50 [3]: 41 nM
SMILES: CCOc1ccc(-c2ccc3ncc4c(c3c2)n(-c2cn(CCOC)nc2C)c(=O)n4C)cn1 [Example 131, 8-(6-Ethoxy-pyridin-3-yl)-1-[1-(2-methoxy-ethyl)-3-methyl-1H-pyrazol-4-yl]-3-methyl-1,3-dihydro-imidazo[4,5-c]quinolin-2-one]
IC50 [1]: 5 nM

IC50 [2]: 6 nM
IC50 [3]: 6 nM
SMILES: Cc1nn(C)cc1-n1c(=O)n(C)c2cnc3ccc(-c4cnc(N)c(F)c4)cc3c21 [Example 142.2, 8-(6-Amino-5-fluoro-pyridin-3-yl)-1-(1,3-dimethyl-1H-pyrazol-4-yl)-3-methyl-1,3-dihydro-imidazo[4,5-c]quinolin-2-one]
IC50 [1]: < 0.5 nM

IC50 [2]: 113 nM
IC50 [3]: 40 nM
SMILES: [2H]C([2H])([2H])Nc1ncc(-c2ccc3ncc4c(c3c2)n(-c2c(C)nn(C)c2C)c(=O)n4C)cc1C(F)(F)F [Example 143, 3-Methyl-8-(6-trideuteromethylamino-5-trifluoromethyl-pyridin-3-yl)-1-(1,3,5-trimethyl-1H-pyrazol-4-yl)-1,3-dihydro-imidazo[4,5-c]quinolin-2-one]
IC50 [1]: 9 nM

IC50 [2]: 172 nM
IC50 [3]: 69 nM
SMILES: CCNc1ncc(-c2ccc3ncc4c(c3c2)n(-c2c(C)nn(C)c2C)c(=O)n4C)cc1C(F)(F)F [Example 145.1, 8-(6-Ethylamino-5-trifluoromethyl-pyridin-3-yl)-3-methyl-1-(1,3,5-trimethyl-1H-pyrazol-4-yl)-1,3-dihydro-imidazo[4,5-c]quinolin-2-one]
IC50 [1]: 50 nM

IC50 [2]: 9 nM
IC50 [3]: 20 nM
SMILES: CNc1ncc(-c2ccc3ncc4c(c3c2)n(-c2cn(C(C)C)nc2C)c(=O)n4C)cc1Cl [Example 146.3, 8-(5-Chloro-6-methylamino-pyridin-3-yl)-1-(1-isopropyl-3-methyl-1H-pyrazol-4-yl)-3-methyl-1,3-dihydro-imidazo[4,5-c]quinolin-2-one]
IC50 [1]: 3 nM

IC50 [2]: 479 nM
IC50 [3]: 172 nM
SMILES: CNc1ncc(-c2ccc3ncc4c(c3c2)n(-c2c(C)noc2C)c(=O)n4C)cc1Cl [Example 146.6, 8-(5-Chloro-6-methylamino-pyridin-3-yl)-1-(3,5-dimethyl-isoxazol-4-yl)-3-methyl-1,3-dihydro-imidazo[4,5-c]quinolin-2-one]
IC50 [1]: 278 nM
